Measurements: ChEMBL document CHEMBL1201862, “PubChem BioAssay data set” (2004)
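Cells were grown in 96-well plates and exposed to each compound for 48 hours at five concentrations; endpoints were interpolated linearly between bracketing concentrations, or set to the highest concentration if not reached. The concentration for 50% growth inhibition is given as GI50.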 Activity calls are given as the source filed them. Cut-off read from the data, not from the text of the source: active = GI50 up to about 1.1 µM and inactive = higher.

Legend:
Experiment in all cases: NCI-60 cell line screen, 48 h
[1] = test system: SK-MEL-5
[2] = test system: SF-295
[3] = test system: OVCAR-5
[4] = test system: NCI-H226
[5] = test system: T47D
[6] = test system: SR
[7] = test system: DU-145
[8] = test system: K562
[9] = test system: A549
[10] = test system: MCF7
[11] = test system: KM12
[12] = test system: HOP-62
[13] = test system: 786-0
[14] = test system: SK-MEL-2
[15] = test system: U-251
[16] = test system: HL-60
[17] = test system: RPMI-8226
[18] = test system: UACC-257
[19] = test system: SK-OV-3
[20] = test system: SNB-75

| Compound | GI50 [1] | GI50 [2] | GI50 [3] | GI50 [4] | GI50 [5] | GI50 [6] | GI50 [7] | GI50 [8] | GI50 [9] | GI50 [10] | GI50 [11] | GI50 [12] | GI50 [13] | GI50 [14] | GI50 [15] | GI50 [16] | GI50 [17] | GI50 [18] | GI50 [19] | GI50 [20] |
| --- | --- | --- | --- | --- | --- | --- | --- | --- | --- | --- | --- | --- | --- | --- | --- | --- | --- | --- | --- | --- |
| Oc1cc(Cl)cc2cccnc12 | 0.902 µM (active) | 0.288 µM (active) | 4.85 µM (inactive) | 6.79 µM (inactive) | 2.25 µM (inactive) | 0.449 µM (active) | 9.71 µM (inactive) | 0.396 µM (active) | 0.998 µM (active) | 1.04 µM (active) | 4.78 µM (inactive) | > 35 µM (inactive) | 8.71 µM (inactive) | 5.92 µM (inactive) | 0.971 µM (active) | 0.229 µM (active) | 0.601 µM (active) | 1.38 µM (inactive) | 43.7 µM (inactive) | 17.2 µM (inactive) |
| COC(O)C(=O)c1c2c(cc3c1CCC3)CCCC2 (configuration not stated) | 4.47 µM (inactive) | 10.5 µM (inactive) | 18.1 µM (inactive) | 16.5 µM (inactive) | 6.28 µM (inactive) | 4 µM (inactive) | 14.1 µM (inactive) | 3.07 µM (inactive) | 18.6 µM (inactive) | 5.27 µM (inactive) | 8.59 µM (inactive) | 17.1 µM (inactive) | 14.1 µM (inactive) | 11.4 µM (inactive) | 14 µM (inactive) | 1.56 µM (inactive) | 2.46 µM (inactive) | 12.6 µM (inactive) | 12 µM (inactive) | 8.17 µM (inactive) |
| Cn1c2c(c3ccccc31)CCN(CCCCN1CCN(c3ccccc3)CC1)C2=O | 5.69 µM (inactive) | > 88.3 µM (inactive) | 19.6 µM (inactive) | > 41.8 µM (inactive) | 3.86 µM (inactive) | 8.93 µM (inactive) | 35.9 µM (inactive) | 4.15 µM (inactive) | 97.3 µM (inactive) | 19.2 µM (inactive) | 30.1 µM (inactive) | 85.7 µM (inactive) | 29.6 µM (inactive) | 24 µM (inactive) | 34.8 µM (inactive) | 7.78 µM (inactive) | 17 µM (inactive) | 5.86 µM (inactive) | > 100 µM (inactive) | 44.8 µM (inactive) |
| Cn1c(CO)ccc1-c1ccc(-c2ccc(CO)[se]2)[se]1 | 2.28 µM (inactive) | > 76.4 µM (inactive) |  | 0.408 µM (active) | 11.9 µM (inactive) | 13.1 µM (inactive) | 12.9 µM (inactive) | 1.35 µM (inactive) | 15.4 µM (inactive) | 0.251 µM (active) | 21.4 µM (inactive) | 7.28 µM (inactive) | 9.04 µM (inactive) | 7.59 µM (inactive) | 0.528 µM (active) | 7.91 µM (inactive) | 2.39 µM (inactive) | 0.192 µM (active) | > 50.4 µM (inactive) | > 100 µM (inactive) |
| COc1ccc2nc3c([N+](=O)[O-])ccc4c3c(c2c1)N=CN4CCCN(C)C | 3.24 µM (inactive) | 2.55 µM (inactive) | 10.2 µM (inactive) | 7.18 µM (inactive) | 11.5 µM (inactive) | 0.125 µM (active) | 2.52 µM (inactive) | 0.488 µM (active) | 0.716 µM (active) | 0.733 µM (active) | 1.24 µM (inactive) | 1.2 µM (inactive) | 0.614 µM (active) | 7.71 µM (inactive) | 1.65 µM (inactive) | 2.77 µM (inactive) | 0.318 µM (active) | 3.78 µM (inactive) | 4.4 µM (inactive) | 2.67 µM (inactive) |
| CC1CC(C)(O)CC(C(O)CC2CC(=O)NC(=O)C2)C1=O (configuration not stated) [RESACTIN A] | 0.0132 µM (active) | < 0.0149 µM (active) | 0.059 µM (active) | 0.0689 µM (active) | 0.0431 µM (active) | 0.0251 µM (active) | 0.0461 µM (active) | 0.0309 µM (active) | 0.0513 µM (active) | 0.0379 µM (active) | 0.0327 µM (active) | 0.027 µM (active) | 0.0252 µM (active) | 0.0585 µM (active) | 0.0313 µM (active) | 0.0392 µM (active) | 0.0456 µM (active) | 0.0541 µM (active) | 0.0818 µM (active) | 0.0225 µM (active) |
| Cc1cc(N(CCC#N)CCC#N)ccc1C(/N=N/c1ccc(Cl)cc1)=N\NC(=O)c1ccccc1 | 22 µM (inactive) | 9.23 µM (inactive) | > 100 µM (inactive) | 31.3 µM (inactive) | 24.5 µM (inactive) | 9.59 µM (inactive) | 44.7 µM (inactive) | 14.9 µM (inactive) | 42.7 µM (inactive) | 13.6 µM (inactive) | 20.2 µM (inactive) | 59.6 µM (inactive) | 34.6 µM (inactive) | 84.1 µM (inactive) | 40.7 µM (inactive) | 25.5 µM (inactive) | 54.2 µM (inactive) | 58.7 µM (inactive) | 42.6 µM (inactive) | 49.5 µM (inactive) |
| N#Cc1c(-c2ccc(Cl)cc2)cc(-c2nc3ccccc3[nH]2)nc1N | 6.67 µM (inactive) | 10.7 µM (inactive) | 19.5 µM (inactive) | 10.8 µM (inactive) | 3.12 µM (inactive) | 4.56 µM (inactive) | 6.98 µM (inactive) | 6.71 µM (inactive) | 5.92 µM (inactive) | 3.49 µM (inactive) | 10 µM (inactive) | 14.4 µM (inactive) | 11.3 µM (inactive) | 12.6 µM (inactive) |  | 11.2 µM (inactive) | 4.22 µM (inactive) | 5.14 µM (inactive) | 19.5 µM (inactive) | 10.8 µM (inactive) |
| O=C1CCc2ccc3c(c21)CC1(Cc2ccccc2C1)C3 | 3.38 µM (inactive) | 3.72 µM (inactive) | 11.3 µM (inactive) | 19.1 µM (inactive) | 8.55 µM (inactive) | 3.58 µM (inactive) | 13 µM (inactive) |  | 7.78 µM (inactive) | 19.2 µM (inactive) | 7.52 µM (inactive) | 6.37 µM (inactive) | 6.58 µM (inactive) | 14.2 µM (inactive) | 8.05 µM (inactive) | 2.11 µM (inactive) | 6.55 µM (inactive) | 5.48 µM (inactive) | 41.4 µM (inactive) | 14.4 µM (inactive) |
| Cc1nc2[nH]ncn2c(=O)c1CCCl | > 10 µM (inactive) |  | > 10 µM (inactive) | > 10 µM (inactive) | > 10 µM (inactive) | > 10 µM (inactive) | > 10 µM (inactive) | > 10 µM (inactive) | > 10 µM (inactive) | > 10 µM (inactive) |  | > 10 µM (inactive) |  | > 10 µM (inactive) | > 10 µM (inactive) | > 10 µM (inactive) | > 10 µM (inactive) |  | > 10 µM (inactive) | > 10 µM (inactive) |
| O=c1[nH]c(=S)[nH]n1C(=S)n1[nH]c(=S)[nH]c1=O | > 100 µM (inactive) | > 100 µM (inactive) | > 100 µM (inactive) | > 100 µM (inactive) | > 100 µM (inactive) | 41.4 µM (inactive) | > 100 µM (inactive) | > 100 µM (inactive) | > 100 µM (inactive) | 2.94 µM (inactive) | > 100 µM (inactive) | > 100 µM (inactive) | > 100 µM (inactive) | > 100 µM (inactive) | > 100 µM (inactive) | 45.2 µM (inactive) | 89.1 µM (inactive) | > 100 µM (inactive) |  | > 100 µM (inactive) |
